Like-named read-outs stand apart in the source and are kept apart here.
Experiments:
143.98.2 = assay: MTT cell proliferation assay, 143.98.2; assay type: cell-based; details: Homo sapiens, 143.98.2, Osteosarcoma, read-out: Cell killing activity IC50
Experimental: (§1) Cells were plated in 96-well tissue culture plates at a density of 1 × 10^3 cells/well, allowed to attach 24 h, and then left untreated or treated with growth medium containing different concentrations of the tested RCn compounds previously dissolved in PBS. After different time periods the cell vitality was determined by MTT assay according to the manufacture’s instruction (Promega). Results are reported as the micromolar concentration of RCn reducing cell survival to 50% (IC50).

SK-N-AS = assay: MTT cell proliferation assay, SK-N-AS; assay type: cell-based; details: Homo sapiens, Neuroblastoma, read-out: Cell killing activity IC50
Experimental: as §1

S462TY = assay: MTT cell proliferation assay, S462TY; assay type: cell-based; details: Homo sapiens, Malignant Peripheral Nerve Sheath Tumor, read-out: Cell killing activity IC50
Experimental: as §1

Ramos = assay: MTT cell proliferation assay, Ramos; assay type: cell-based; details: Homo sapiens, Lymphoma, read-out: Cell killing activity IC50
Experimental: as §1

Rh41 = assay: MTT cell proliferation assay, Rh41; assay type: cell-based; details: Homo sapiens, Rh41, Rhabdomyosarcoma, read-out: Cell killing activity IC50
Experimental: as §1

A549 = assay: MTT cell proliferation assay, A549; assay type: cell-based; details: Homo sapiens, A549, adult tumor cell line, read-out: Cell killing activity IC50
Experimental: as §1

MDA-MB-231 = assay: MTT cell proliferation assay, MDA-MB-231; assay type: cell-based; details: Homo sapiens, MDA-MB-231, adult tumor cell line, read-out: Cell killing activity IC50
Experimental: as §1

WIDr = assay: MTT cell proliferation assay, WIDr; assay type: cell-based; details: Homo sapiens, adult tumor cell line, read-out: Cell killing activity IC50
Experimental: as §1

[1] = test system: Human Foreskin Keratinocytes (differentiated); assay: MTT cell proliferation assay, normal keratinocytes; assay type: cell-based; details: Keratinocyte, normal cells, read-out: Cell killing activity IC50
Experimental: as §1

[2] = test system: pediatric tumor cell lines; assay: MTT cell killing, pediatric tumor cell lines (summary); assay type: cell-based; details: Table I
Experimental: as §1

[3] = test system: SH-SY5Y, A673 and 143.98.2 cells; assay: Annexin V-FITC/7AAD flow cytometry (apoptosis); assay type: cell-based, human; details: 5 μM RC16, 24 h, all cell lines
Experimental: SH-SY5Y, A673 and 143.98.2 cells were stained with Annexin V-FITC/7AAD according to the manufacturer’s instructions (Biosciences). Briefly, adherent cells were seeded in 6 multi wells at a concentration of 4.5 × 10^5 cells/well and after 24 h treated with 5 μM RC16 for15 h and 24 h. At the end of the treatment the cells were detached, washed twice with cold PBS and then suspended in annexin binding buffer containing 5 μl of Annexin V-FITC and 5 μl of 7AAD. The samples were gently vortexed and incubated 15 min at 25°C in the dark. Finally, 400 ul binding buffer were added to each tube and the samples were analyzed by BD LSR II (Biosciences). The analysis was performed by FlowJo software version 10.0.5.

A673 = assay: Intracellular ROS assay; assay type: cell-based, human; details: A673, 5 μM RC16, 15 h
Experimental: Intracellular ROS were measured by OxiSelect™ Intracellular ROS Assay Kit (Cell Biolabs) following the manufacturer’s instructions. Briefly, cells (1 × 10^5/mL) were washed twice in PBS and incubated with 5 μM 2’,7’-dichlorodihydrofluorescein diacetate (H2DCFDA) 1 h at 37°C. After PBS washes, the medium was changed with a new one containing 5 μM RC16 for 15 h and 24 h. At the end of the treatment samples were washed with PBS and a mixture of medium and cell lysis buffer (1:1) was added for 5 min at 37°C. The fluorescence was read by a fluorimetric plate reader (Spectra max M2, Molecular Device). Excitation wavelength was 480 nm and emission wavelength was 530 nm.

[4] = Maximum tolerated dose in mice; details: female, mouse, in vivo; single intravenous injection, non-tumor bearing athymic nude mice
Experimental: To determine the MTD, a standard assay dose escalation study was performed. Non-tumor bearing, female, athymic nude mice were injected once with RC16 by the tail vein starting with 0.5 mg/kg. The doses were escalated by 0.25 mg/kg until MTD was achieved. Following convention, each dose was tested on a cohort of 5 mice in individual independent experiments. MTD was defined as the highest dose that could be given resulting in no drug-related moribund state or death or body weight loss ≥ 20% in the first 7 days. Other signs of toxicity such as unusual mouse behavior, lack of movement and poor posture were also monitored. Mice were weighed and observed 3 times per week for any signs of toxicity.

[5] = test system: nude mice bearing CHLA-20 tumors; assay: Biodistribution study (IVIS imaging); assay type: in vivo, mouse; details: RC16 labelled with Cell-Vue Maroon
Experimental: A pilot biodistribution study using one animal per timepoint was performed to minimize the number of experimental animals. Female athymic nude mice were subcutaneously implanted with 5.0 × 10^6 CHLA-20 cells. When tumors became palpable (approximately 5 mm in diameter), mice were treated with i.v. injections of RC16 labelled with Cell-Vue Maroon (dye:RC16, 1:100 mol:mole) at a dose of 1 mg/kg. […] The mice were then humanely euthanized by CO2 asphyxiation. Organs were removed, weighed and used for quantitative optical imaging by the IVIS system.

Micelle size by TEM = assay type: physicochemical; details: RC16 micelles self-assembled in water
Experimental: TEM studies were carried out on SH-SY5Y cells and HFs incubated with 5 μM RC16 for 24 h. Cells were seeded on cover glasses for 24 h and then the medium was replaced with a fresh one containing 5 μM RC16 for 24 h. At the end of the treatment the samples were washed with PBS and fixed with 2.5% glutaraldehyde in 0.1 M phosphate buffer for 2 h at 4°C and subsequently post-fixed with 1% OsO4 in 0.1 M phosphate buffer for 1 h at room temperature. After several washes the samples were dehydrated in an acetone series (70, 90, 100%) and embedded in Epon resin (Fluka, Sigma-Aldrich). Thin sections were collected on nickel grids, stained with uranyl acetate and lead citrate, and observed under a TEM (Philips CM10; FEI). Images were recorded using a Megaview III digital camera (FEI). […] To this purpose an aqueous solution of RC16 (20 μM) was stained with 2% (w/v) phosphotungstic acid for 3 min on a copper grid and subsequently it was visualized under TEM.

`CCCCCCCCCCCCCCC1CN2CCCN3CCCCCC132` (stereo not shown) [RC16, 2-tetradecyl-4,8-diazatricyclo[6.5.0.0^1,^4]tridecane] showed an IC50 (143.98.2; 24 h) of 500 nM, an IC50 (143.98.2; 48 h) of 320 nM and an IC50 (SK-N-AS; 24 h) of 880 nM. It also gave an IC50 (SK-N-AS; 48 h) of 670 nM, an IC50 (S462TY; 24 h) of 1110 nM and an IC50 (S462TY; 48 h) of 760 nM. For the same molecule, the IC50 (Ramos; 24 h) was 100 nM, the IC50 (Ramos; 48 h) was 40 nM and the IC50 (Rh41; 24 h) was 250 nM. The IC50 (Rh41; 48 h) was 150 nM, the IC50 (A549; 24 h) was 6620 nM and the IC50 (A549; 48 h) was 5580 nM. The IC50 (MDA-MB-231; 24 h) was 2960 nM, the IC50 (MDA-MB-231; 48 h) was 1670 nM and the IC50 (WIDr; 24 h) was 7300 nM. It also gave an IC50 (WIDr; 48 h) of 6020 nM, an IC50 ([1]; 24 h) of 15200 nM and an IC50 ([1]; 48 h) of 13500 nM. For the same molecule, the “Cell killing (qualitative)” value [2] was “most active”, the “Apoptosis (sum of LR and UR quadrants)” value [3] was “approximately 100%” and the “Intracellular ROS levels relative to control” value (A673) was “more than twice the control values”. For the same molecule, the MTD at 7 days [4] was 4 mg/kg, the “Organ fluorescence intensity (biodistribution)” value ([5]; 1 mg/kg i.v., 12, 24 and 48 h) was “stomach, intestine and liver showed the highest fluorescence intensity” and the “RC16 level in tumors over time” value ([5]; 1 mg/kg i.v., CHLA-20 tumors) was “remained constant over time”. For the same molecule, the Micelle mean diameter (Micelle size by TEM) was 20–30 nm.

Source: publication PMC5040747, “Preparation and Evaluation of a Novel Class of Amphiphilic Amines as Antitumor Agents and Nanocarriers for Bioactive Molecules” (Pharmaceutical Research, 2016)
